The source of these data is US20080188445A1, “TETRACYCLINE COMPOSITIONS FOR TOPICAL ADMINISTRATION” (WARNER CHILCOTT COMPANY INC., priority 2007, published 2008).

Where a name gives a salt, the structure may show the parent alone.

The data set is described as follows: Permeation through a silicone membrane, pH effect (side-by-side permeation apparatus). The data set is classed as in vitro ADME. The conditions noted are these: 32° C. From the text: A further study investigated the permeation of minocycline from a liquid formulation comprising 0.47% (w/w) minocycline HCl dissolved in water through a silicone membrane as function of the pH. The diffusion of tetracycline from commercially available Topicycline® (0.2% w/w tetracycline HCl) across a silicone membrane was also compared under equivalent conditions. The permeation apparatus used (FIG. 1) was as follows. The apparatus consisted of two water-jacketed compartments 1 and 2, separated by a standard silicone membrane 3 (SMEM001 002, Esco Rubber, Barloworld Scientific Ltd, UK), which were clamped together. Each water-jacketed compartment 1 and 2 had respective water inlets 4 and water outlets 5 on the respective outer compartments 6, said outer compartments containing water. Inner compartment 7 for containing sample and inner compartment 8 for containing dissolution medium are also shown. The liquid formulation (or the Topicycline®) was immediately introduced into the inner compartment 7 via port 10. A pre-heated 0.9% saline solution (32° C.) was introduced via the sampling port 9 in the inner compartment 8.

On to `CN(C)c1ccc(O)c2c1C[C@H]1C[C@H]3[C@H](N(C)C)C(O)=C(C(N)=O)C(=O)[C@@]3(O)C(O)=C1C2=O` [Minocycline HCl], for which the “Amount of Tetracycline or Minocycline (μg) detected after 6 hours” value reads like this: (pH 5.0, receiver 0.9% saline) 0.17 µg; (pH 6.2, receiver 0.9% saline) 0.55 µg; (pH 7.0, receiver 0.9% saline) 0.31 µg.
